{"source": "BigSolDB 2.1"}
{"smiles": "O=P(c1ccccc1)(c1ccccc1)c1cc(O)ccc1O", "values": [{"measurement": "solubility (mole fraction)", "setting": "in 2-ethoxyethanol, 299.43 K", "value": 0.0108}, {"measurement": "solubility (mole fraction)", "setting": "in 2-ethoxyethanol, 303.25 K", "value": 0.0113}, {"measurement": "solubility (mole fraction)", "setting": "in 2-ethoxyethanol, 308.24 K", "value": 0.0124}, {"measurement": "solubility (mole fraction)", "setting": "in 2-ethoxyethanol, 313.46 K", "value": 0.0137}, {"measurement": "solubility (mole fraction)", "setting": "in 2-ethoxyethanol, 318.15 K", "value": 0.0154}, {"measurement": "solubility (mole fraction)", "setting": "in 2-ethoxyethanol, 323.27 K", "value": 0.0168}, {"measurement": "solubility (mole fraction)", "setting": "in 2-ethoxyethanol, 328.26 K", "value": 0.018}, {"measurement": "solubility (mole fraction)", "setting": "in 2-ethoxyethanol, 333.45 K", "value": 0.0198}, {"measurement": "solubility (mole fraction)", "setting": "in 2-ethoxyethanol, 338.75 K", "value": 0.0223}, {"measurement": "solubility (mole fraction)", "setting": "in 2-ethoxyethanol, 343.15 K", "value": 0.0236}, {"measurement": "solubility (mole fraction)", "setting": "in 2-ethoxyethanol, 348.15 K", "value": 0.0252}, {"measurement": "solubility (mole fraction)", "setting": "in 2-ethoxyethanol, 353.14 K", "value": 0.0279}, {"measurement": "solubility (mole fraction)", "setting": "in 2-ethoxyethanol, 358.06 K", "value": 0.0295}, {"measurement": "solubility (mole fraction)", "setting": "in 2-ethoxyethanol, 363.15 K", "value": 0.0316}, {"measurement": "solubility (mole fraction)", "setting": "in 2-ethoxyethanol, 368.16 K", "value": 0.0348}, {"measurement": "solubility (mole fraction)", "setting": "in acetone, 299.45 K", "value": 0.00175}, {"measurement": "solubility (mole fraction)", "setting": "in acetone, 303.26 K", "value": 0.00188}, {"measurement": "solubility (mole fraction)", "setting": "in acetone, 308.24 K", "value": 0.00216}, {"measurement": "solubility (mole fraction)", "setting": "in acetone, 313.47 K", "value": 0.00236}, {"measurement": "solubility (mole fraction)", "setting": "in acetone, 318.13 K", "value": 0.00262}, {"measurement": "solubility (mole fraction)", "setting": "in acetone, 323.26 K", "value": 0.00296}, {"measurement": "solubility (mole fraction)", "setting": "in acetone, 328.25 K", "value": 0.00332}, {"measurement": "solubility (mole fraction)", "setting": "in ethanol, 293.95 K", "value": 0.00571}, {"measurement": "solubility (mole fraction)", "setting": "in ethanol, 298.26 K", "value": 0.00634}, {"measurement": "solubility (mole fraction)", "setting": "in ethanol, 303.44 K", "value": 0.00721}, {"measurement": "solubility (mole fraction)", "setting": "in ethanol, 308.26 K", "value": 0.00787}, {"measurement": "solubility (mole fraction)", "setting": "in ethanol, 313.45 K", "value": 0.00903}, {"measurement": "solubility (mole fraction)", "setting": "in ethanol, 318.47 K", "value": 0.00979}, {"measurement": "solubility (mole fraction)", "setting": "in ethanol, 323.35 K", "value": 0.0109}, {"measurement": "solubility (mole fraction)", "setting": "in ethanol, 328.43 K", "value": 0.0117}, {"measurement": "solubility (mole fraction)", "setting": "in ethanol, 333.35 K", "value": 0.0127}, {"measurement": "solubility (mole fraction)", "setting": "in methanol, 294.16 K", "value": 0.00625}, {"measurement": "solubility (mole fraction)", "setting": "in methanol, 298.35 K", "value": 0.00707}, {"measurement": "solubility (mole fraction)", "setting": "in methanol, 303.87 K", "value": 0.00814}, {"measurement": "solubility (mole fraction)", "setting": "in methanol, 308.85 K", "value": 0.00946}, {"measurement": "solubility (mole fraction)", "setting": "in methanol, 313.34 K", "value": 0.0108}, {"measurement": "solubility (mole fraction)", "setting": "in methanol, 318.15 K", "value": 0.0123}, {"measurement": "solubility (mole fraction)", "setting": "in methanol, 323.56 K", "value": 0.0138}, {"measurement": "solubility (mole fraction)", "setting": "in toluene, 293.96 K", "value": 0.00071}, {"measurement": "solubility (mole fraction)", "setting": "in toluene, 298.25 K", "value": 0.00075}, {"measurement": "solubility (mole fraction)", "setting": "in toluene, 303.47 K", "value": 0.00078}, {"measurement": "solubility (mole fraction)", "setting": "in toluene, 308.24 K", "value": 0.00082}, {"measurement": "solubility (mole fraction)", "setting": "in toluene, 313.45 K", "value": 0.00086}, {"measurement": "solubility (mole fraction)", "setting": "in toluene, 318.43 K", "value": 0.00089}, {"measurement": "solubility (mole fraction)", "setting": "in toluene, 323.38 K", "value": 0.00094}, {"measurement": "solubility (mole fraction)", "setting": "in toluene, 328.45 K", "value": 0.00099}, {"measurement": "solubility (mole fraction)", "setting": "in water, 297.16 K", "value": 0.00011}, {"measurement": "solubility (mole fraction)", "setting": "in water, 308.15 K", "value": 0.00012}, {"measurement": "solubility (mole fraction)", "setting": "in water, 313.34 K", "value": 0.00013}, {"measurement": "solubility (mole fraction)", "setting": "in water, 318.15 K", "value": 0.00014}, {"measurement": "solubility (mole fraction)", "setting": "in water, 323.47 K", "value": 0.00014}, {"measurement": "solubility (mole fraction)", "setting": "in water, 328.46 K", "value": 0.00015}, {"measurement": "solubility (mole fraction)", "setting": "in water, 333.25 K", "value": 0.00015}, {"measurement": "solubility (mole fraction)", "setting": "in water, 338.17 K", "value": 0.00016}, {"measurement": "solubility (mole fraction)", "setting": "in water, 343.25 K", "value": 0.00017}, {"measurement": "solubility (mole fraction)", "setting": "in water, 348.36 K", "value": 0.00017}, {"measurement": "solubility (mole fraction)", "setting": "in water, 353.14 K", "value": 0.00018}, {"measurement": "solubility (mole fraction)", "setting": "in water, 358.13 K", "value": 0.00018}, {"measurement": "solubility (mole fraction)", "setting": "in water, 363.27 K", "value": 0.00019}, {"measurement": "solubility (mole fraction)", "setting": "in water, 368.26 K", "value": 0.00019}]}
